In the experiment the target is Tubulin beta-2B chain (UniProt Q6B856). Briefly: Binding affinity against tubulin from goat brain relative to colchicine.

Each structure is given as a SMILES string.

Tubulin beta-2B chain, sequence (Q6B856 whole entry): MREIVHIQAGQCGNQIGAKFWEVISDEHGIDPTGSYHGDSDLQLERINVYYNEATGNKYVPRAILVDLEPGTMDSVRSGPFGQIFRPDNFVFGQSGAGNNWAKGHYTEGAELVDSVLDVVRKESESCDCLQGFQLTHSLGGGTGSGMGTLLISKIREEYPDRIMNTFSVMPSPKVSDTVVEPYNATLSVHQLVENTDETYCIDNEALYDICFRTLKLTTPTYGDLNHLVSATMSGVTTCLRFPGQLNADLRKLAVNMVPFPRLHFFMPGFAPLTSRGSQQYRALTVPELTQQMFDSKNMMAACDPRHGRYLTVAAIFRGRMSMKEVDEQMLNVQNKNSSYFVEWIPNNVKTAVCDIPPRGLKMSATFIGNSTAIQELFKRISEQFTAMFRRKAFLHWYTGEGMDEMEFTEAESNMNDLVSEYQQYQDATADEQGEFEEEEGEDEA

With `COc1ccc(S(=O)(=O)Nc2cccc3cc[nH]c23)cc1` [N-(1H-Indol-7-yl)-4-methoxy-benzenesulfonamide], the Ki (as a rule, a dissociation constant, usually derived from enzyme kinetics or from competition with a known ligand) came to 14 µM.

For the compound `COc1ccc(S(=O)(=O)Nc2cccc3cc(Cl)[nH]c23)cc1` [N-(2-Chloro-1H-indol-7-yl)-4-methoxy-benzenesulfonamide], affinity was put at a Ki of 28 µM.

Compound `COc1ccc(S(=O)(=O)Nc2cccc3c(Cl)c[nH]c23)cc1` [N-(3-Chloro-1H-indol-7-yl)-4-methoxy-benzenesulfonamide] displayed a Ki of 14 µM.

Compound `COc1ccc(S(=O)(=O)Nc2ccc(Cl)c3cc[nH]c23)cc1` [N-(4-Chloro-1H-indol-7-yl)-4-methoxy-benzenesulfonamide] returned a Ki of 14 µM.

With `COc1ccc(S(=O)(=O)Nc2cc(Cl)cc3cc[nH]c23)cc1` [N-(5-Chloro-1H-indol-7-yl)-4-methoxy-benzenesulfonamide], the affinity, expressed as Ki, was 7 µM.

The values above are taken from BindingDB's records for doi:10.1021/jm0494974 (Institute, 2005).
